“Also recorded” adds a separate entry of the source.
Key:
adult female B. pahangi = test: Transmission electron microscopy of treated adult female B. pahangi; assay type: cell-based, Brugia pahangi; settings: flubendazole 10 μM overnight, positive control
Procedure: Adult female B. pahangi worms were incubated with either 1 μM, 0.3 μM, or 0.1 μM auranofin, 10 μM flubendazole (as a positive control), or 1% DMSO overnight, then cut into 3 segments separating the anterior, middle and posterior sections. The middle sections were further cut into 1 mm sized pieces in fixative (2.5% glutaraldehyde and 2% paraformaldehyde in 0.1 M sodium cacodylate buffer, pH 7.3–7.4) and stored at 4°C. Middle sections were subsequently treated with 1% tannic acid for 1 hour, followed by three buffer washes before post fixation staining with 2% osmium tetroxide for 1 hour. The samples were washed three times in buffer before dehydration in an ethanol series. Worm sections were then infiltrated with propylene oxide, embedded in epon 812 resin and polymerized in a vacuum oven at 60°C overnight. Ultrathin sections were cut using an RMC MTX ultramicrotome with a Diatome diamond knife followed by post staining of the grids with saturated ethanolic uranyl acetate and Reynolds lead citrate. Samples were imaged on a FEI Tecnai 12 spirit TEM operated at 80 kV. A similar procedure was performed on adult female O. ochengi worm masses that were cultured for 7 days with 10 μM auranofin before fixation of cut pieces of the adult female mass. Untreated adult female masses cultured for 7 days and fixed by the same procedure served as the control.

[1] = system: Recombinant B. malayi TrxR (rBmTrxR); test: Recombinant B. malayi TrxR (rBmTrxR) DTNB inhibition assay; assay type: biochemical, Brugia malayi
Procedure: Recombinant 6-His-tagged B. malayi TrxR (rBmTrxR) was produced in E. coli BL21(DE3) in the presence of pSUABC [29] in LB medium supplemented with 20 μg/mL riboflavin under conditions for optimal selenoprotein expression. An overnight starter culture in LB with 50 μg/mL ampicillin and 34 μg/mL chloramphenicol was diluted (1:100) into in LB medium with the same antibiotics. When the culture reached an OD600 = 0.8, the medium was supplemented with 5 μM sodium selenite and 100 μg/mL L-cysteine. When the culture OD600 = 2, riboflavin (20 μg/mL) was added and protein expression was induced by the addition of isopropyl β-D-1-thiogalactopyranoside (50 μM). At this point the cultures were shifted to 24°C and incubated for 24 hr. Cells were collected by centrifugation, lysed by alternative freeze-thaw cycles, and resuspended in lysis buffer (50 mM potassium phosphate, pH 7.8, 500 mM NaCl, 30 mM imidazole, 1 mg/mL lysozyme, 1 mM phenylmethanesulfonylfluoride) supplemented with 100 μM flavin adenine dinucleotide. The sample was sonicated and cellular debris pelleted at 25,000 x g at 4°C for 25 min. The supernatant was collected and filtered through a 0.45 μm filter before purification by immobilized metal ion affinity chromatography using a His-Trap FF column (GE Healthcare). The column was washed with 10 column volumes binding buffer (50 mM potassium phosphate, pH 7.8, 500 mM NaCl, 30 mM imidazole) and then with 5 column volumes of buffer A (binding buffer with 100 mM imidazole). TrxR protein was eluted in 3 × 1 mL buffer B (binding buffer with 500 mM imidazole).Protein was concentrated (Amicon Ultra-4 10K) and purity was verified by SDS-PAGE and quantified by absorbance at 280 nm (ε = 69.76 mM^-1 cm^-1).
rBmTrxR activity was assayed in 0.1 M potassium phosphate (pH 7.2) with 10 mM EDTA and 25 nM rBmTrxR. rBmTxrR was pre-incubated for 20 min with NADPH (100 μM) and auranofin (ICN Pharmaceuticals, now Valeant Pharmaceuticals, Bridgewater, NJ) or aurothioglucose (USP Reference Standards, Rockville, MD) in DMSO in 100 μL, followed by addition of an equal volume of buffer with NADPH (200 μM) and DTNB (6 mM) with reaction progress monitored at λ = 412 nm for TNB production. The concentration of DMSO in all reactions was 3.5%.

Row | Molecule | ultrastructure (TEM) of adult female B. pahangi (adult female B. pahangi) | mode of inhibition of rBmTrxR [1] | IC50 ([1]; 25 nM rBmTrxR, 20 min pre-incubation with NADPH, DTNB substrate) [nM]
1 | COC(=O)Nc1nc2cc(C(=O)c3ccc(F)cc3)ccc2[nH]1 [flubendazole] | normal Wolbachia with very few mitochondria containing dark bodies; also recorded: did not cause vacuolization but only minor changes to the mitochondria |  | 
2 | aurothioglucose |  | irreversibly inhibit rBmTrxR at a one-to-one molar ratio | 9
